Experimental data from US20240182445A1 (ONO PHARMACEUTICAL CO., LTD., priority 2019, published 2024).
pIC50: −log10 of the molar value.

What follows are compounds tested against T1, human TREK-1 (Homo sapiens, UniProt O95069) (assay: TREK-1 Thallium (Tl+) flux assay, Method 1). Settings: TREK-1 Thallium (Tl+) flux assay, Method 1.
T1 construct: expressed in transfected cells
T1 sequence (O95069 1-426): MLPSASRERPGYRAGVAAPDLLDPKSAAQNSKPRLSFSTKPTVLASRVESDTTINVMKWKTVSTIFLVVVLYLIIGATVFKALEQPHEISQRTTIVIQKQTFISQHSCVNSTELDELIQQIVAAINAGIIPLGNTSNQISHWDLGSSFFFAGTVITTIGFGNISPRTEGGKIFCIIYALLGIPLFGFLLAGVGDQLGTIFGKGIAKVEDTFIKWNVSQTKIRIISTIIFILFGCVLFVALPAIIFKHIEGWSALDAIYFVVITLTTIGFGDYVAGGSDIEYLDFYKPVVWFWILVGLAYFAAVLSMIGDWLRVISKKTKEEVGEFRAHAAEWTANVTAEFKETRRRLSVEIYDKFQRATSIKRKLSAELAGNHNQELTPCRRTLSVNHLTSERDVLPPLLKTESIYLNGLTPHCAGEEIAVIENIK
Assay type: cell-based
Summary of the method: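 CHO-K1 cells stably expressing human TREK-1, loaded with Thallos dye, received compound or 0.3% DMSO vehicle for 10 min before thallium stimulus buffer. ΔRatio is fluorescence at 25 s after thallium addition over mean pre-addition fluorescence; % inhibition calculated from it.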
With `Cc1cc(OCc2ccccc2)ccc1NC(=O)c1c(Cl)cnn1[C@H]1CC[C@@H](NC(=O)OC(C)(C)C)CC1` [Compound 404, tert-butyl (cis-4-(5-((4-(benzyloxy)-2-methylphenyl)carbamoyl)-4-chloro-1H-pyrazol-1-yl)cyclohexyl)carbamate] the pIC50 was 5.64.

Same assay, conditions: TREK-1 Thallium (Tl+) flux assay; no *^12 (Method 2) mark on these rows
Work on `Cc1cc(C#Cc2ccccc2)cnc1NC(=O)c1c(Cl)cnn1[C@H]1C[C@@H](NC(=O)OC(C)(C)C)C1` [Compound 357, tert-butyl (cis-3-(4-chloro-5-((3-methyl-5-(phenylethynyl)pyridin-2-yl)carbamoyl)-1H-pyrazol-1-yl)cyclobutyl)carbamate] yielded a pIC50 of 6.06.
In the case of `Cc1cc(-c2cnn(-c3ccc(F)cc3)c2)cnc1NC(=O)c1c(Cl)cnn1C1CCOCC1` [Compound 381, 4-chloro-N-(5-(1-(4-fluorophenyl)-1H-pyrazol-4-yl)-3-methylpyridin-2-yl)-1-(tetrahydro-2H-pyran-4-yl)-1H-pyrazole-5-carboxamide], the pIC50 was 6.22.
For `CC(C)C(=O)N1CCC[C@H](Cn2ncc(Cl)c2C(=O)Nc2ncc(C#Cc3ccccc3)cc2F)C1` [Compound 288, (S)-4-chloro-N-(3-fluoro-5-(phenylethynyl)pyridin-2-yl)-1-((1-isobutyrylpiperidin-3-yl)methyl)-1H-pyrazole-5-carboxamide], the pIC50 was 6.30.
`Cc1cc(C#Cc2ccc(F)cc2)cnc1NC(=O)c1c(Cl)cnn1C[C@@H]1CCCN(C(=O)OC(C)(C)C)C1` [Compound 344, tert-butyl (R)-3-((4-chloro-5-((5-((4-fluorophenyl)ethynyl)-3-methylpyridin-2-yl)carbamoyl)-1H-pyrazol-1-yl)methyl)piperidine-1-carboxylate] showed a pIC50 of 6.12.
In the case of `CC(C)C(=O)N1CCC(Cn2ncc(Cl)c2C(=O)Nc2ncc(C#Cc3ccccc3)cc2F)C(F)(F)C1` (stereo not drawn) [Compound 216, 4-chloro-1-((3,3-difluoro-1-isobutyrylpiperidin-4-yl)methyl)-N-(3-fluoro-5-(phenylethynyl)pyridin-2-yl)-1H-pyrazole-5-carboxamide], the pIC50 was 6.48.
In the case of `Cc1cc(C#Cc2cccs2)cnc1NC(=O)c1c(Cl)cnn1[C@H]1C[C@@H]2CN(C(=O)C(C)(C)C)C[C@@H]2C1` [Compound 354, 4-chloro-1-[(3aR,5s,6aS)-2-(2,2-dimethylpropanoyl)octahydrocyclopenta [c]pyrrol-5-yl]-N-{3-methyl-5-[(thiophen-2-yl)ethynyl]pyridin-2-yl}-1H-pyrazole-5-carboxamide], the pIC50 was 6.07.
`Cc1cc(C#Cc2cccs2)cnc1NC(=O)c1c(Cl)cnn1C[C@H]1COCCO1` [Compound 343, (S)-1-((1,4-dioxan-2-yl)methyl)-4-chloro-N-(3-methyl-5-(thiophen-2-ylethynyl)pyridin-2-yl)-1H-pyrazole-5-carboxamide] gave a pIC50 of 6.12.
Compound `CC(C)(C)OC(=O)N1CC2(CC(n3ncc(Cl)c3C(=O)Nc3ncc(C#Cc4ccccc4)cc3F)C2)C1` [Compound 334, tert-butyl 6-(4-chloro-5-((3-fluoro-5-(phenylethynyl)pyridin-2-yl)carbamoyl)-1H-pyrazol-1-yl)-2-azaspiro[3.3]heptane-2-carboxylate] has a pIC50 of 6.17.
For `CCC(=O)N1CCCC(Cn2ncc(Cl)c2C(=O)Nc2ncc(C#Cc3ccc(F)cc3)cc2C)C1` (stereo not drawn) [Compound 355, 4-chloro-N-(5-((4-fluorophenyl)ethynyl)-3-methylpyridin-2-yl)-1-((1-propionylpiperidin-3-yl)methyl)-1H-pyrazole-5-carboxamide], the pIC50 was 6.07.
With `Cc1cc(C#Cc2ccccc2)cnc1NC(=O)c1c(Cl)cnn1CC1CCC(C)(C)O1` (stereo not drawn) [Compound 371, 4-chloro-1-((5,5-dimethyltetrahydrofuran-2-yl)methyl)-N-(3-methyl-5-(phenylethynyl)pyridin-2-yl)-1H-pyrazole-5-carboxamide] the pIC50 was 6.00.
`CC(C)(C)OC(=O)N1CCC(n2ncc(Cl)c2C(=O)Nc2ncc(C#Cc3cccs3)cc2F)CC1` [Compound 335, tert-butyl 4-(4-chloro-5-((3-fluoro-5-(thiophen-2-ylethynyl)pyridin-2-yl)carbamoyl)-1H-pyrazol-1-yl)piperidine-1-carboxylate] showed a pIC50 of 6.15.
`Cc1cc(C#Cc2ccccc2)cnc1NC(=O)c1c(Cl)cnn1C1CC2(C1)CN(C(=O)OC(C)(C)C)C2` [Compound 330, tert-butyl 6-(4-chloro-5-((3-methyl-5-(phenylethynyl)pyridin-2-yl)carbamoyl)-1H-pyrazol-1-yl)-2-azaspiro[3.3]heptane-2-carboxylate] showed a pIC50 of 6.19.

Same assay, conditions: TREK-1 Thallium (Tl+) flux assay; values without footnote *12 are Method 1
Compound `CC(=O)N1CCCC(Cn2ncc(Cl)c2C(=O)Nc2ncc(C#Cc3ccccc3)cc2C)C1` (stereo not drawn) [Compound 176, 1-((1-acetylpiperdin-3-yl)methyl)-4-chloro-N-(3-methyl-5-(phenylethynyl)pyridin-2-yl)-1H-pyrazole-5-carboxamide] has a pIC50 of 6.57.
`Cc1cc(C#Cc2ccc(F)cc2)cnc1NC(=O)c1c(Cl)cnn1C1CC2(C1)CN(C(=O)C(C)C)C2` [Compound 116, 4-chloro-N-(5-((4-fluorophenyl)ethynyl)-3-methylpyridin-2-yl)-1-(2-isobutyryl-2-azaspiro[3.3]heptan-6-yl)-1H-pyrazole-5-carboxamide] was tested, and the pIC50 was 6.70.
In the case of `CC(=O)N1CC[C@H](Cn2ncc(Cl)c2C(=O)Nc2ncc(C#Cc3ccccc3)cc2C)[C@H](F)C1` [Compound 82, 1-(((3S,4R)-1-acetyl-3-fluoropiperidin-4-yl)methyl)-4-chloro-N-(3-methyl-5-(phenylethynyl)pyridin-2-yl)-1H-pyrazole-5-carboxamide], the pIC50 was 6.80.
`CC(=O)N1CC(Cn2ncc(Cl)c2C(=O)Nc2ncc(C#Cc3ccccc3)cc2F)C1` [Compound 93, 1-((1-acetylazetidin-3-yl)methyl)-4-chloro-N-(3-fluoro-5-(phenylethynyl)pyridin-2-yl)-1H-pyrazole-5-carboxamide] showed a pIC50 of 6.74.
`Cc1cc(C#Cc2cccs2)cnc1NC(=O)c1c(Cl)cnn1[C@H]1C[C@@H]2CN(C(=O)C(C)C)C[C@@H]2C1` [Compound 187, 4-chloro-1-[(3aR,5s,6aS)-2-(2-methylpropanoyl)octahydrocyclopenta [c]pyrrol-5-yl]-N-{3-methyl-5-[(thiophen-2-yl)ethynyl]pyridin-2-yl}-1H-pyrazole-5-carboxamide] gave a pIC50 of 6.54.
Work on `Cc1cc(C#Cc2ccccc2)cnc1NC(=O)c1c(Cl)cnn1CC1(C)CCN(C(=O)C2CC2C)CC1` (stereo not drawn) [Compound 184, 4-chloro-1-((4-methyl-1-(2-methylcyclopropane-1-carbonyl)piperidin-4-yl)methyl)-N-(3-methyl-5-(phenylethynyl)pyridin-2-yl)-1H-pyrazole-5-carboxamide] yielded a pIC50 of 6.55.
`Cc1cc(C#Cc2ccccc2)cnc1NC(=O)c1c(Cl)cnn1CCC1CCN(C(=O)C(C)C)CC1` [Compound 188, 4-chloro-1-(2-(1-isobutyrylpiperidin-4-yl)ethyl)-N-(3-methyl-5-(phenylethynyl)pyridin-2-yl)-1H-pyrazole-5-carboxamide] gave a pIC50 of 6.54.
`CC(C)C(=O)N1CC[C@H](Cn2ncc(Cl)c2C(=O)Nc2ncc(C#Cc3ccccc3)cc2F)[C@H](F)C1` [Compound 58, 4-chloro-1-(((3S,4R)-3-fluoro-1-isobutyrylpiperidin-4-yl)methyl)-N-(3-fluoro-5-(phenylethynyl)pyridin-2-yl)-1H-pyrazole-5-carboxamide] showed a pIC50 of 6.85.
Compound `CC(=O)N1CC[C@@H](Cn2ncc(Cl)c2C(=O)Nc2ncc(C#Cc3ccccc3)cc2F)[C@H](F)C1` [Compound 178, 1-(((3S,4S)-1-acetyl-3-fluoropiperidin-4-yl)methyl)-4-chloro-N-(3-fluoro-5-(phenylethynyl)pyridin-2-yl)-1H-pyrazole-5-carboxamide] has a pIC50 of 6.57.
`Cc1cc(C#Cc2ccccc2)cnc1NC(=O)c1c(Cl)cnn1C[C@H]1CCOC1` [Compound 147, (R)-4-chloro-N-(3-methyl-5-(phenylethynyl)pyridin-2-yl)-1-((tetrahydrofuran-3-yl)methyl)-1H-pyrazole-5-carboxamide] showed a pIC50 of 6.62.
Compound `CC(=O)N1CCC(n2ncc(Cl)c2C(=O)Nc2c(C)cc(C#Cc3ccccc3)cc2F)CC1` [Compound 37, 1-(1-acetylpiperidin-4-yl)-4-chloro-N-(2-fluoro-6-methyl-4-(phenylethynyl)phenyl)-1H-pyrazole-5-carboxamide] has a pIC50 of 6.92.
For `CC(=O)N1CCOC(Cn2ncc(Cl)c2C(=O)Nc2ncc(C#Cc3ccccc3)cc2C)C1` (stereo not drawn) [Compound 105, 1-((4-acetylmorpholin-2-yl)methyl)-4-chloro-N-(3-methyl-5-(phenylethynyl)pyridin-2-yl)-1H-pyrazole-5-carboxamide], the pIC50 was 6.72.
With `CC(=O)N[C@H]1C[C@H](n2ncc(Cl)c2C(=O)Nc2ncc(C#Cc3ccccc3)cc2C)C1` [Compound 156, 1-(trans-3-acetamidocyclobutyl)-4-chloro-N-(3-methyl-5-(phenylethynyl)pyridin-2-yl)-1H-pyrazole-5-carboxamide] the pIC50 was 6.62.

Same assay, conditions: read-out: Tl^+ Assay % inhibition at 30 uM (Minus value indicates activation of TREK-1); at 30 uM; CHO-K1 cells stably expressing human TREK-1; minus = activation
Work on `CC(=O)N1CCC(CCn2cc(Cl)c(C(=O)Nc3ncc(C#Cc4cccs4)cc3F)n2)CC1` [Compound 447, 1-(2-(1-acetylpiperidin-4-yl)ethyl)-4-chloro-N-(3-fluoro-5-(thiophen-2-ylethynyl)pyridin-2-yl)-1H-pyrazole-3-carboxamide] yielded an inhibition at 30 µM of -107%.
